We go through 1 compound from US9439915B2, “Activated nitric oxide donors and methods of making and using thereof” (University of Utah Research Foundation, priority 2008, dated 2016).

The nature of data set [1]: Dialysis retention of JS-K (loading in micelles). As to conditions: 2 hours of dialysis; JS-K levels by HPLC; JS-K to polymer 10% by weight. Type of data set: physicochemical. The protocol: This example illustrates the extent of JS-K loading in micelles. JS-K was loaded in Pluronic® P123 and L121 polymers to form micelles. The proportion of JS-K to Pluronic® polymer in solution was 10% by weight. The JS-K micelle preparations were then dialyzed for 2 hours. A parallel experiment following the same procedures with free JS-K was set up as a control. After 2 hours of dialysis, JS-K levels were measured by HPLC to estimate the percent of JS-K retained.

Data set [2] can be described thus: Stability in RPMI media with 10% Fetal Bovine Serum. It counts as in vitro ADME. As to conditions: RPMI/10% FBS, 37° C.; micelle 50, free 10 micromolar; average and SEM of 6.
Protocol: (§1) The stability of JS-K in different media in vitro was evaluated. […] Concentrations of JS-K in the different media were measured at intervals up to 60 minutes using High Pressure Liquid Chromatography (HPLC). Area Under the Curve (AUC) HPLC measurements were used to determine the half-life (T1/2) and percent recovery of JS-K in the different media.
Data set [3] has as its system HL-60 cells. Briefly: In vitro cytotoxicity, MTS assay. Type of data set: cell-based. The procedure: The in vitro cytotoxicity of JS-K in Pluronic® micelles was studied in this example. JS-K was loaded in F68, P105, or F127 Pluronic® micelles as described above. […] […] Similar control experiments were set-up with equivalent concentrations of each Pluronic® micelle without JS-K. After a 3 day incubation, cell growth was measured using the MTS assay. […] Equivalent empty micelles at equal concentrations (0.08% w/v) had no significant effect on cell growth (not shown).

The nature of data set [4]: Effect on systemic blood pressure (tail cuff). It counts as in vivo, NOD/SCID and NOD/SCID IL2Rγ^null mice. As to conditions: 5 μmol/kg intravenous, awake mice, up to 2 hours. From the text:
This example illustrates the effect of JS-K in Pluronic® micelles on systemic blood pressure. […] The proportion of JS-K to Pluronic® polymer in solution was 1.53% by weight.
Awake, unanesthetized NOD/SCID and NOD/SCID IL2Rγ^null mice were used for these experiments.

Data set [5] in a line: Stability in pooled human plasma. Type of data set: in vitro ADME. As to conditions: 37° C., micelle 50, free 10 micromolar, average and SEM of 2.
Protocol: as §1
For data set [6], the system named is HL-60 cells. Description: In vivo anti-leukemic activity, HL-60 flank tumors. Also on record: species or system NOD/SCID IL2Rγ^null mice. As to conditions: 4 μmol/kg intravenously 3 times per week; p=0.01 by F-test. From the text: This example illustrates the in vivo anti-leukemic activity of JS-K in Pluronic® micelles. NOD/SCID IL2Rγ^null mice were inoculated with 5×10^6 HL-60 cells in each flank. […] The proportion of JS-K to Pluronic® polymer in solution was 2.0% by weight. Injections were given 3 times per week intravenously. The dose of free and micelle-formulated JS-K was 4 μmol/kg. […] A linear mixed model using SAS PROC MIXED was fit to the data in FIG. 8, using a random effect to account for correlation among measurements within the same animal.

A word on the IC50: it is the midpoint of a concentration-inhibition curve. A lower IC50 goes with greater potency in that assay.

On to `CCOC(=O)N1CCN(/[N+]([O-])=N/Oc2ccc([N+](=O)[O-])cc2[N+](=O)[O-])CC1` [free JS-K, O^2-(2,4-dinitrophenyl) 1-[(4-ethoxycarbonyl)piperazin-1-yl]diazen-1-ium-1,2-diolate], for which the “Percent retention of JS-K after dialysis” value in data set [1] amounted to 31%. Further, the figures for the “percent recovery after 60 minute incubation” value in data set [2] and in data set [5] were 10.53+/−1.42% and 39+/−0%, respectively. For the same compound, the “inhibition of leukemia cell growth” value in the data set with HL-60 cells [3] (0.5 μM, 3 day incubation, MTS, JS-K to polymer 4% by weight) is recorded as 62%. This compound also came in with an IC50 in the data set with HL-60 cells [3] (JS-K to polymer 1.97% by weight) of 450 nM. Moreover, in data set [4], the “sustained drop in systolic blood pressure” value is recorded as “around 20 % of baseline”. In addition, the “rate of tumor growth, free vs micelle JS-K (linear mixed model)” value in the data set on HL-60 cells [6] was “significantly higher”.
